Reference: patent US20140335050A1, “METHODS, COMPOSITIONS, AND KITS FOR THE TREATMENT OF CANCER” (The General Hospital Corporation, priority 2011, published 2014)

Legend:
Assay type in all cases: cell-based, human
[1] = test system: HeLa cervical carcinoma cells; assay: Surface antibody staining and flow cytometry (MHC Class I/II); conditions: for Class I MHC, geometric mean of surface staining (W6/32): 4 day IFN-β pre-treatment (5000 Units/ml), with PU-H71 0.3 where labelled (label IFN-β: no inhibitor)
Procedure: (§1) Intracellular staining and flow cytometric analyses of cytoplasmic Melan-A/MART-1, and gp100 expression were performed as described previously. Cells were fixed with 1% formaldehyde, permeabilized with 0.1% saponin, stained with monoclonal antibodies to melanocyte antigens. Antibodies were obtained with specificity for: Melan-A/MART-1 from Vector Labs (Burlingame, Calif.); gp100/HMB45 from DakoCytomation (Carpinteria, Calif.) and then visualized with goat anti-mouse FITC-conjugated secondary antibody from Invitrogen (Frederick, Md.). The level of EGFP was determined by flow cytometry of unfixed cells washed and resuspended in 1×PBS. Surface staining of MHC Class I was carried out using the antibody W6/32 on cells harvested with Cell Stripper from MediaTech Inc. (Manassas, Va.) and carried out on ice.
(§2) Cell were seeded at 1×10^6 cells in a T25 flask with 10 ml of media for the 4 day IFN-beta pre-treatments. Cells were then harvested and plated in 24 well plate at 1×10^5 cells per well in 1 ml of media for 3 day treatments.
(§3) For surface staining of HLA Class I and II antigens, cells were harvested using CellStripper™ from Mediatech (Manassas, Va.). All staining steps were performed on ice. Following a first incubation with antibody to Class I (W6/32) or Class II (L243) for 30 minutes. Stained cells were washed twice with cold PBS and then stained with a goat anti-mouse FITC secondary antibody to allow for quantitative analysis by flow cytometry. For evaluation of cytoplasmic antigens, including Melan-A/MART-1 and gp100, cells were first fixed in paraformaldehyde and permeabilized with saponin as previously described. Staining for cytoplasmic antigens was carried out at room temperature (22° C.).

[2] = test system: MCF-7 breast cancer cells; assay: as above
Procedure: as §1, §2, §3

[3] = test system: Raji B cell lymphoma cells; assay: as above
Procedure: as §1, §2, §3

[4] = test system: MU89 cell line; assay: Western blot (BRAF, Melan-A/MART-1, TRP-2, phosphorylated MEK and ERK)
Procedure: A. Western blot performed on extracts of the MU89 cell line treated as indicated for three days. Extracts were probed with antibodies to BRAF, Melan-A/MART-1, TRP-2, or beta-Actin. 30 μg of total protein was loaded in each lane of the gel. […] B. Protein gel electrophoresis was performed using 30 μg of total protein extracts prepared from the indicated cell lines. Cells were untreated (control) or treated with 0.15 μg/ml of BIIB021 for three days. After transfer Western blots were probed with antibodies to phosphorylated MEK (p-MEK) or β-Actin.
FIG. 17 is a series of Western blots that show changes in protein levels and state of phosphorylation after treatment with an Hsp90 inhibitor. A primary Anti BRAF (H145) antibody was used at a 1:5000 dilution. A secondary Goat anti rabbit antibody was used at a dilution of 1:5000. […]
To address the effect of Hsp90 inhibition on the MAP kinase pathway, protein levels and signaling activity (protein phosphorylation levels) of the proteins in this pathway were analyzed directly. […]
Cell lysates were prepared using RIPA buffer from Santa Cruz (Santa Cruz, Calif.) containing protease and phosphatase inhibitors. Protein concentrations were determined using Bradford assay from BioRad (Hercules, Calif.). […] Sizes of proteins were determined by comparison to the Broad prestained protein standard ladder from BioRad (Hercules, Calif.).

[5] = test system: Roth melanoma cell line; assay: Intracellular antibody staining and flow cytometry (gp100/HMB45); conditions: Roth (BRAF WT, NRAS M/M); 3 days; 17-AEP 0.50, CCT018159 2.50, PU-H71 0.25 μg/ml
Procedure: (§4) Several cell lines expressing varying native-sequences, (wild-type (WT) or mutant (M) alleles of these genes were evaluated), to determine if there is a relationship between levels of Hsp90 inhibitor-mediated antigen up-regulation and BRAF and NRAS mutational status. Mutant status of the NRAS and BRAF loci were determined previously.
(§5) Cells were plated at a density of 1×10^5 in 1 ml of medium in a 24-well plate and cultured for varying times as indicated in results. Typically, 3 days of culture in the presence of Hsp90 inhibitors was optimal for the functional studies performed. After incubation, cells were collected by trypsinization and then evaluated by flow cytometry.
as §1, with “Surface staining of MHC Class I was carried out using the antibody W6/32 on cells harvested with Cell Stripper from MediaTech Inc. (Manassas, Va.) and carried out on ice.” left out

[6] = test system: MM455 melanoma cell line; assay: as above; conditions: MM455 (BRAF M/WT, NRAS WT); 3 days; 17-AEP 0.50, CCT018159 2.50, PU-H71 0.25 μg/ml
Procedure: as §4, §5
as §1, with “Surface staining of MHC Class I was carried out using the antibody W6/32 on cells harvested with Cell Stripper from MediaTech Inc. (Manassas, Va.) and carried out on ice.” left out

[7] = HeLa cells, Table 20, single agent or simultaneous combination
[8] = MCF-7 cells, Table 20, single agent or simultaneous combination
[9] = three days, IFN-β 5000 Units/ml, IFN-γ 100 ng/ml, PU-H71 0.3 mg/ml

CC(C)NCCCn1c(Sc2cc3c(cc2I)OCO3)nc2c(N)ncnc21 [PU-H71]
L243 (MHC Class II surface staining) ([1]; HELA, single agent): 3.5
L243 (MHC Class II surface staining) [1, 7]: 3.8
W6/32 (MHC Class I surface staining) [1, 7]: 286.6
L243 (MHC Class II surface staining) ([1]; HeLa cells, Table 21, no pre-treatment, treatment as labelled): 4
L243 (MHC Class II surface staining) ([1]; HeLa cells, Table 21, pre-treatment IFN-G (3 days), then treatment as labelled): 185
L243 (MHC Class II surface staining) ([1]; HeLa cells, Table 21, substance given as pre-treatment (3 days) only, no subsequent treatment): 6
Class I MHC, geometric mean of surface staining (W6/32) ([1]; HeLa, then 3 days with fresh IFN-β): 137
Class I MHC, geometric mean of surface staining (W6/32) ([1]; HeLa, then 3 days without IFN-β): 168
Class II antigen level, sequential treatment ([1]; HeLa, IFN-gamma for 3 days, subsequently PU-H71): significantly greater than that achieved with IFN-gamma alone
Class I expression, combination ([1]; HeLa, PU-H71 together with IFN-beta): do not show the synergy
MHC Class II, geometric mean of surface staining (L2443) ([1]; HeLa, three days, IFN-β 5000 Units/ml, IFN-γ 100 ng/ml, PU-H71 0.3 mg/ml): 19
MHC Class I, geometric mean of surface staining (W6/32) ([1]; HeLa, three days, IFN-β 5000 Units/ml, IFN-γ 100 ng/ml, PU-H71 0.3): 402
MHC Class I, geometric mean of surface staining (W6/32) ([1]; HeLa, three days, IFN-β 5000 Units/ml, PU-H71 0.075-0.3): 182
Class I MHC, geometric mean of surface staining (W6/32) ([2]; MCF-7, 4 day IFN-β pre-treatment (5000 Units/ml), then 3 days with fresh IFN-β, with PU-H71 0.3 mg/ml where labelled (label IFN-β: no inhibitor)): 213
Class I MHC, geometric mean of surface staining (W6/32) ([2]; MCF-7, 4 day IFN-β pre-treatment (5000 Units/ml), then 3 days without IFN-β, with PU-H71 0.3 mg/ml where labelled (label IFN-β: no inhibitor)): 227
Class II induction, combination ([2]; MCF-7, PU-H71 and IFN-gamma): inhibited
Class I stimulation induced with IFN-beta or IFN-gamma, combination ([2]; MCF-7, addition of PU-H71): diminished
L243 (MHC Class II surface staining) ([2]; MCF-7, single agent): 4.7
Class I MHC, geometric mean of surface staining (W6/32) ([2]; MCF-7, single agent for 3 days, no IFN-β pre-treatment, IFN-β 5000 Units/ml, PU-H71 0.3 mg/ml): 61
MHC Class I, geometric mean of surface staining (W6/32) ([2]; MCF-7, three days, IFN-β 5000 Units/ml, PU-H71 0.075-0.3 mg/ml): 61
L243 (MHC Class II surface staining) [2, 8]: 4.7
W6/32 (MHC Class I surface staining) [2, 8]: 113.0
Class I MHC, geometric mean of surface staining (W6/32) ([3]; 4 day IFN-β pre-treatment (5000 Units/ml), then 3 days with fresh IFN-β, with PU-H71 0.3 mg/ml where labelled (label IFN-β: no inhibitor)): 129
Class I MHC, geometric mean of surface staining (W6/32) ([3]; 4 day IFN-β pre-treatment (5000 Units/ml), then 3 days without IFN-β, with PU-H71 0.3 mg/ml where labelled (label IFN-β: no inhibitor)): 139
L243 (MHC Class II surface staining) ([3]; single agent): 79.0
Class I MHC, geometric mean of surface staining (W6/32) ([3]; single agent for 3 days, no IFN-β pre-treatment, IFN-β 5000 Units/ml, PU-H71 0.3 mg/ml): 157
MHC Class I, geometric mean of surface staining (W6/32) [3, 9]: 139
MHC Class II, geometric mean of surface staining (L2443) [3, 9]: 160
MHC Class I, geometric mean of surface staining (W6/32) ([3]; three days, IFN-β 5000 Units/ml, PU-H71 0.075-0.3 mg/ml): 79

CO[C@H]1/C=C\C=C(/C)C(=O)NC2=CC(=O)C(NCCN3CCCC3)=C(C[C@@H](C)C[C@H](OC)[C@H](O)[C@@H](C)/C=C(\C)[C@@H]1OC(N)=O)C2=O [17-AEP]
BRAF protein level (Western blot) ([4]; 3 days): reduces levels of BRAF
Phosphorylated MEK and Phosphorylated ERK levels (Western blot) ([4]; 3 days (FIG. 17)): decreased levels

CCc1cc(-c2n[nH]c(C)c2-c2ccc3c(c2)OCCO3)c(O)cc1O [CCT018159]
HMB45, level of induction relative to untreated control cells [5]: 1.95
HMB45, level of induction relative to untreated control cells [6]: 1.16
